Reference: patent publication US6479487B1, “6, 9-disubstituted 2-[trans-(4-aminocyclohexyl)amino] purines” (Aventis Pharmaceuticals Inc., priority 1998, dated 2002)
“And” between values parts separate entries of the source, which are not always exact repeats. Equal entries are not always repeated. Structures can show the parent of a compound that is named as a salt. Where two headings read alike, the source gives them in different places.

Legend:
cdk2/cyclin E = biological target: T1, cdk2/cyclin E (Homo sapiens, UniProt P24941); assay: Cyclin-Dependent Kinase 2 Assay (cdk2/cyclin E, GST-Rb substrate); type: biochemical; settings: recombinant cdk2/cyclin E, 10 μM ATP, 30 min at 30° C., several values in a cell = separate determinations, read-out: CDK-2 Inhibition IC50
T1 construct: made in house; host or cells: insect cells (baculovirus co-infection)
Method: Substrate: GST-Rb as described above for cdk4/cyclin D1
Assay conditions for cdk2/cyclin E were identical to those for cdk4/cyclin D1 including the substrate. The concentration of recombinant cdk2/cyclin E in the assay was 0.1 μg per 100 μl assay. Incubation was for 30 min at 30° C.

PC-3 = assay: In vitro tumor cell proliferation, PC-3; type: cell-based, human; settings: many values given with an undefined *, read-out: In vitro Tumor Cell Proliferation (IC50, μM) Prostate PC-3
Method in brief: (§1)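 Two read-outs were used: sulforhodamine B after 3 + 4 days of drug with re-dosing at medium change, or CyQUANT after 3 days of drug and freezing of plates at −80° C for at least 30 minutes.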

HT-29 = assay: In vitro tumor cell proliferation, HT-29; type: cell-based, human; settings: many values given with an undefined *, read-out: In vitro Tumor Cell Proliferation (IC50, μM) Colon HT-29
Method in brief: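 Growth was quantified either with CyQUANT, plates frozen at −80° C after 3 days of drug, or by sulforhodamine B staining of TCA-fixed cells after 3 days of drug plus 4 days with fresh drug. Trypan blue-excluding HT-29 cells were plated overnight at 37° C before dosing.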

cdk4/cyclin D1 = biological target: T2, cdk4/cyclin D1 (Homo sapiens, UniProt P11802); assay: Cyclin-dependent Kinase 4 Assay (cdk4/cyclin D1, GST-Rb substrate); type: biochemical; settings: cdk4/cyclin D1 insect cell lysate, 10 μM ATP, 30 min at 37° C., several values = separate determinations, read-out: CDK4 Inhibition IC50
T2 construct: made in house; host or cells: Sf9 insect cells (Bac-to-Bac baculovirus, pFastBac)
T2 sequence (P11802 whole entry): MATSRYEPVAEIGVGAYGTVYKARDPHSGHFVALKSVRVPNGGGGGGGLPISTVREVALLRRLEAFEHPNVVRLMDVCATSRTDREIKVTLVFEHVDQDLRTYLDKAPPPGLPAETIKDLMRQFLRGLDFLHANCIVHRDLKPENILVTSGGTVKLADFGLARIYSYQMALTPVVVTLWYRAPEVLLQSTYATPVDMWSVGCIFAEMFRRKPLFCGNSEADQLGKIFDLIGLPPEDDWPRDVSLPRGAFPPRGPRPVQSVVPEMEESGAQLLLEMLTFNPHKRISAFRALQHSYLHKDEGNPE
T2 sequence (P24385 whole entry partner): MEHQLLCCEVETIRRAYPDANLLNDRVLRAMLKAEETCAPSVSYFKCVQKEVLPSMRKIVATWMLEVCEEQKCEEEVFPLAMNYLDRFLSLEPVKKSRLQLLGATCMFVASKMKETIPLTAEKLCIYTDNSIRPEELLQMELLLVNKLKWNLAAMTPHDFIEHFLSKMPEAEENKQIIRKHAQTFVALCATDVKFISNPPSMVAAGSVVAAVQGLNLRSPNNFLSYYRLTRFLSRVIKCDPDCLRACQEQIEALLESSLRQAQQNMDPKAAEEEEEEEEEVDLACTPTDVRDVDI
Method in brief: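 IC50 against cdk4 measured by scintillation counting of bead-bound GST-Rb (0.5 μg) after filtration and four TNEN washes. Reaction was 30 min at 37 °C in HEPES pH 7.5 buffer with 10 mM MgCl2 and 1 mM EGTA. Enzyme source was 0.1 μg Sf9 lysate coinfected with cdk4 and cyclin D1.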

MDA-MB-435 = assay: In vitro tumor cell proliferation, MDA-MB-435; type: cell-based; settings: values given with an undefined *, read-out: In vitro Tumor Cell Proliferation (IC50, μM) Breast MDA-MB-435
Method in brief: as §1

DU145 = assay: In vitro tumor cell proliferation, DU145; type: cell-based, human; settings: many values given with an undefined *, read-out: In vitro Tumor Cell Proliferation (IC50, μM) Prostate DU145
Method in brief: as §1

MDA-MB-231 = assay: In vitro tumor cell proliferation, MDA-MB-231; type: cell-based, human; settings: sulforhodamine B or CyQUANT assay, many values given with an undefined *, read-out: In vitro Tumor Cell Proliferation (IC50, μM) Breast MDA-MB-231
Method in brief: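 Proliferation quantified by SRB staining of TCA-fixed cells after 3 days of drug plus 4 days with replenished drug, following overnight attachment at 37 °C.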

DMS-114 = assay: In vitro tumor cell proliferation, DMS-114; type: cell-based, human; settings: many values given with an undefined *, read-out: In vitro Tumor Cell Proliferation (IC50, μM) Lung DMS-114
Method in brief: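 Human small cell lung carcinoma DMS-114 cells plated overnight, then drug-treated for 3 days, medium and drug renewed, and incubated 4 more days. Growth read by sulforhodamine B staining after TCA fixation; alternatively by CyQUANT after 3 days' drug exposure and freezing at −80 °C.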

Colo-205 = assay: In vitro tumor cell proliferation, Colo-205; type: cell-based; settings: values given with an undefined *, read-out: In vitro Tumor Cell Proliferation (IC50, μM) Colon Colo-205
Method in brief: as §1

A549 = assay: In vitro tumor cell proliferation, A549; type: cell-based, human; settings: many values given with an undefined *, read-out: In vitro Tumor Cell Proliferation (IC50, μM) Lung A549
Method in brief: as §1

[1] = Homo sapiens, MDA-MB-435, MDA-MB-435
[2] = Homo sapiens, MDA-MB-231, MDA-MB-231
[3] = Homo sapiens, COLO 205, Colo-205

IC50 (cdk2/cyclin E) | IC50 (PC-3; Homo sapiens, PC-3, PC-3) | IC50 (PC-3; PC-3) | IC50 (HT-29; Homo sapiens, HT-29, HT-29) | IC50 (cdk4/cyclin D1) | IC50 (MDA-MB-435; [1]) | IC50 (MDA-MB-435; MDA-MB-435) | IC50 (DU145; Homo sapiens, DU-145, DU145) | IC50 (MDA-MB-231; [2]) | IC50 (MDA-MB-231; MDA-MB-231) | IC50 (DMS-114; DMS-114) | IC50 (DMS-114; Homo sapiens, DMS-114, DMS-114) | IC50 (Colo-205; Colo-205) | IC50 (Colo-205; [3]) | IC50 (A549; A549) | IC50 (A549; Homo sapiens, A549, A549) | SMILES | also measured
230 nM and 130 nM and 340 nM | 0.16 µM | 0.22 µM | 0.22 µM | 2300 nM | 0.24 µM | 0.27 µM | 0.16 µM | 0.2 µM | 0.22 µM | 0.21 µM | 0.28 µM | 0.17 µM | 0.16 µM | 0.09 µM | 0.15 µM | Cc1ccccc1CN1CCC(Nc2nc(N[C@H]3CC[C@H](N)CC3)nc3c2ncn3C2CCCC2)CC1 [Example 44, 2-[Trans-(4-aminocyclohexyl)amino]-6-[4-(1-(2-methylbenzyl))piperidinylamino]-9-cyclopentylpurine] | 
1100 nM and 900 nM | 0.63 µM | 0.74 µM | 0.71 µM | 6700 nM | 0.96 µM | 0.75 µM | 0.51 µM | 0.89 µM | 0.71 µM | 0.71 µM | 1.3 µM | 0.48 µM | 0.53 µM | 0.32 µM | 0.46 µM | N[C@H]1CC[C@H](Nc2nc(NC3CCN(Cc4c(Cl)cccc4Cl)CC3)c3ncn(C4CCCC4)c3n2)CC1 [Example 45, 2-[Trans-(4-aminocyclohexyl)amino]-6-[4-(1-(2,6-dichlorobenzyl))piperidinylamino]-9-cyclopentylpurine] | IC50 (HT-29; HT-29): 0.55 µM; IC50 (DU145; DU145): 0.46 µM
50 nM | 1.9 µM |  | 3.4 µM | 1500 nM and 1600 nM | 3.3 µM |  | 3.9 µM | 3 µM |  |  | 4.6 µM |  | 1.7 µM |  | 4.4 µM | N[C@H]1CC[C@H](Nc2nc(N[C@H]3CC[C@H](O)CC3)c3ncn(C4CCCC4)c3n2)CC1 [Example 145a, Trans-2-[Trans-(4-aminocyclohexyl)amino]-6-[(4-hydroxy)cyclohexylamino]-9-cyclopentylpurine dihydrochloride] | IC50 (PC-3; PC-3, dihydrochloride): 2.1 µM; IC50 (HT-29; HT-29, dihydrochloride): 2.3 µM; IC50 (MDA-MB-435; MDA-MB-435, dihydrochloride): 3.8 µM; IC50 (DU145; DU145, dihydrochloride): 3.8 µM; IC50 (MDA-MB-231; MDA-MB-231, dihydrochloride): 2.9 µM; IC50 (DMS-114; DMS-114, dihydrochloride): 3.1 µM; IC50 (Colo-205; Colo-205, dihydrochloride): 1.6 µM; IC50 (A549; A549, dihydrochloride): 4.8 µM
164 nM | 11 µM |  | 16 µM | 1600 nM and 810 nM and 500 nM |  |  | 12 µM |  |  |  |  |  | 12 µM |  | 12 µM | N[C@H]1CC[C@H](Nc2nc(NC3(CO)CCCC3)c3ncn(C4CCCC4)c3n2)CC1 [Example 146, (R,S)-2-[Trans-(4-aminocyclohexyl)amino]-6-[(1-hydroxymethyl)cyclopentylamino]-9-cyclopentylpurine dihydrochloride] | IC50 (PC-3; PC-3, dihydrochloride): 10 µM; IC50 (HT-29; HT-29, dihydrochloride): 11 µM; IC50 (MDA-MB-435; MDA-MB-435, dihydrochloride): 21 µM; IC50 (DU145; DU145, dihydrochloride): 16 µM; IC50 (MDA-MB-231; MDA-MB-231, dihydrochloride): 12 µM; IC50 (DMS-114; DMS-114, dihydrochloride): 11 µM
410 nM and 97 nM and 440 nM | 0.24 µM |  | 0.32 µM | 2900 nM and 2100 nM | 0.42 µM |  | 0.22 µM | 0.35 µM |  |  | 0.32 µM |  | 0.2 µM |  | 0.17 µM | N[C@H]1CC[C@H](Nc2nc(NC3CCN(Cc4cccc5ccccc45)CC3)c3ncn(C4CCCC4)c3n2)CC1 [Example 147-a, 2-[Trans-(4-aminocyclohexyl)amino]-6-[4-[1-(1-naphthyl)methyl]piperidinylamino)-9-cyclopentylpurine trihydrochloride] | IC50 (PC-3; PC-3, trihydrochloride): 0.34 µM; IC50 (MDA-MB-435; MDA-MB-435, trihydrochloride): 0.408 µM; IC50 (DU145; DU145, trihydrochloride): 0.33 µM; IC50 (MDA-MB-231; MDA-MB-231, trihydrochloride): 0.34 µM; IC50 (DMS-114; DMS-114, trihydrochloride): 0.33 µM
 |  |  |  |  |  |  |  |  |  |  |  |  |  |  |  | N[C@H]1CC[C@H](Nc2nc(NC3CCN(Cc4ccc(C(F)(F)F)cc4C(F)(F)F)CC3)c3ncn(C4CCCC4)c3n2)CC1 [Example 147-aa, 2-[Trans-(4-aminocyclohexyl)amino]-6-[4-[1-(2,4-bis-trifluoromethylbenzyl)]piperidinylamino]-9-cyclopentylpurine trihydrochloride] | IC50 (cdk2/cyclin E; trihydrochloride): 1600 nM and 2600 nM; IC50 (PC-3; PC-3, trihydrochloride): 3.8 µM and 4.6 µM; IC50 (HT-29; HT-29, trihydrochloride): 2.8 µM and 2.3 µM; IC50 (cdk4/cyclin D1; trihydrochloride): 10000 nM and 8400 nM; IC50 (MDA-MB-435; MDA-MB-435, trihydrochloride): 5.8 µM and 4.9 µM; IC50 (DU145; DU145, trihydrochloride): 4.4 µM and 4.3 µM; IC50 (MDA-MB-231; MDA-MB-231, trihydrochloride): 2.5 µM and 3.1 µM; IC50 (DMS-114; DMS-114, trihydrochloride): 2.7 µM and 2.9 µM; IC50 (Colo-205; Colo-205, trihydrochloride): 4 µM and 2.9 µM; IC50 (A549; A549, trihydrochloride): 4.1 µM and 3.6 µM

SMILES | IC50 (cdk2/cyclin E) | IC50 (PC-3; Homo sapiens, PC-3, PC-3) | IC50 (PC-3; PC-3) | IC50 (HT-29; Homo sapiens, HT-29, HT-29) | IC50 (cdk4/cyclin D1) | IC50 (MDA-MB-435; [1]) | IC50 (MDA-MB-435; MDA-MB-435) | IC50 (DU145; Homo sapiens, DU-145, DU145) | IC50 (MDA-MB-231; [2]) | IC50 (MDA-MB-231; MDA-MB-231) | IC50 (DMS-114; DMS-114) | IC50 (DMS-114; Homo sapiens, DMS-114, DMS-114) | IC50 (Colo-205; Colo-205) | IC50 (Colo-205; [3]) | IC50 (A549; A549) | IC50 (A549; Homo sapiens, A549, A549) | also measured
N[C@H]1CC[C@H](Nc2nc(NC3CCN(Cc4ccc(C(F)(F)F)cc4)CC3)c3ncn(C4CCCC4)c3n2)CC1 [Example 46, 2-[Trans-(4-aminocyclohexyl)amino]-6-[4-(1-(4-trifluoromethylbenzyl))piperidinylamino]-9-cyclopentylpurine] | 500 nM and 450 nM |  | 0.39 µM and 0.46 µM |  | 20000 nM |  | 0.61 µM and 0.62 µM |  |  | 0.46 µM and 0.53 µM | 0.35 µM and 0.58 µM |  | 0.44 µM and 0.46 µM |  | 0.28 µM and 0.33 µM |  | IC50 (HT-29; HT-29): 0.53 µM and 0.44 µM; IC50 (DU145; DU145): 0.36 µM and 0.49 µM
